Measurements published in US11236055B2 (Venenum Biodesign, LLC, priority 2016, dated 2022).

Experiments:
mouse TGR5 receptor = target: T1, mouse TGR5 receptor (Mus musculus, UniProt Q80SS6); assay: Mouse TGR5 cAMP production assay (HTRF, Cisbio cAMP HiRange); format: cell-based; settings: HEK293-EBNA cells overexpressing mouse TGR5, HTRF cAMP HiRange; coded A-D
T1 construct: expressed in transfected cells; host or cells: HEK293-EBNA (293 c18, ATCC CRL10852), Hygromycin B selection
T1 sequence (Q80SS6 1-329): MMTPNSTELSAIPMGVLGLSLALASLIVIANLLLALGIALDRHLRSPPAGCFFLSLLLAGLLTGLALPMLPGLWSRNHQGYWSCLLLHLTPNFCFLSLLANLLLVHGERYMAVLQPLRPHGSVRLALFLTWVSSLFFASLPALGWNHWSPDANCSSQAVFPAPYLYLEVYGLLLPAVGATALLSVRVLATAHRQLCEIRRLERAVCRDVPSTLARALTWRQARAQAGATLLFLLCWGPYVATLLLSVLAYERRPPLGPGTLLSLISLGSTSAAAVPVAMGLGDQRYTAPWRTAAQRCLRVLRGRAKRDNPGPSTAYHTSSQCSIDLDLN
In short: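 cAMP read by HTRF competition after 1 h room-temperature compound exposure of mouse TGR5-overexpressing HEK293-EBNA cells. Cells were suspended in serum-free DMEM containing 500 μM IBMX; compounds ran as 12-point half-log dilutions in duplicate; EC50 derived.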

human TGR5 receptor = target: T2, human TGR5 receptor (Homo sapiens, UniProt Q8TDU6); assay: Human TGR5 cAMP production assay; format: cell-based; settings: human TGR5, luminescent cAMP assay; coded A-D; read-out: Human TGR5 Lum. cAMP Activity (EC50)
T2 construct: host or cells: CHO-K1 (hTGR5-CHO cells)
T2 sequence (Q8TDU6 1-330): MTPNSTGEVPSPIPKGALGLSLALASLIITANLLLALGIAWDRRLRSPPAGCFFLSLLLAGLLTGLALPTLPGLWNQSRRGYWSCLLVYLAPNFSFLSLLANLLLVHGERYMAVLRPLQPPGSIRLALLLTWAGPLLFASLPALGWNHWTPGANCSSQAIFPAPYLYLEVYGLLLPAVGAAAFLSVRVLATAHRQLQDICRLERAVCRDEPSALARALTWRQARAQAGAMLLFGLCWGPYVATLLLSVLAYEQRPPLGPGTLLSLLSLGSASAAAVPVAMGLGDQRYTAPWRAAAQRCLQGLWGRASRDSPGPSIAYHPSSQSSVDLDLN
In short: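 Intracellular cAMP read by luminescent enzyme-complementation (XS+) after overnight development, following 1 h room-temperature compound treatment of hTGR5-CHO-K1 cells in IBMX plus anti-cAMP antibody. Compounds tested as half-log dilution series; EC50 derived.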

EC50 (mouse TGR5 receptor)	EC50 (human TGR5 receptor)	SMILES
< 100 nM	< 100 nM	Cc1cnccc1-c1cccc([C@H](C)N(CCCCC(=O)NCCS(=O)(=O)O)S(=O)(=O)c2cccc(Cl)c2C)c1 [Compound 20AH, (S)-2-(5-(3-chloro-2-methyl-N-(1-(3-(3-methylpyridin-4-yl)phenyl)ethyl)phenylsulfonamido)pentanamido)ethanesulfonic acid]
< 100 nM	< 100 nM	Cc1cnccc1-c1cccc([C@H](C)N(CCCC(=O)NCCNS(=O)(=O)NCC(=O)O)S(=O)(=O)c2cccc(Cl)c2C)c1 [Compound 38]
